According to patent US9073931B2, “Liver X receptor modulators” (Vitae Pharmaceuticals, Inc., priority 2012, dated 2015):
Like-named read-outs stand apart in the source and are kept apart here.

Tests used:
LBD of LXRβ [1] = molecular target: T1, LBD of LXRβ (Homo sapiens (Human), UniProt P55055); test: cell-based
LXR β LBD protein = LXR β LBD protein (Homo sapiens (Human), UniProt P55055); test: LXR β radioligand binding assay (SPA, [3H]T0901317 competition); settings: competition with 15 nM [3H]T0901317, LXRβ LBD
Sequence of LXR β LBD protein (P55055 222-460): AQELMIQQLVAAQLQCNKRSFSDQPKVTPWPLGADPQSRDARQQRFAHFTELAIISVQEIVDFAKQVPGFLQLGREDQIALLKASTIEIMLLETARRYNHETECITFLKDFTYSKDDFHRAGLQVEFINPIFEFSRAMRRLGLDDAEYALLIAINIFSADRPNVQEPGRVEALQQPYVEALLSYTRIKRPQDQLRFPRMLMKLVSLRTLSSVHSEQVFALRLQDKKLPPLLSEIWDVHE

LBD of LXRβ [2] = molecular target: T1, LBD of LXRβ

T1 sequence (P55055 222-460): as above

Row | Compound | EC50 (LBD of LXRβ [1]) [nM] | Ki (LXR β LBD protein) [nM] | EC50 (LBD of LXRβ [2]) [nM]
1 | CC(=O)c1cnc(N2CCn3c(nc4ccc(S(C)(=O)=O)cc43)C2C(C)C)nc1C(F)(F)F (racemic) [Compound E1, 1-(2-(1-isopropyl-7-(methylsulfonyl)-3,4-dihydrobenzo[4,5]imidazo[1,2-a]pyrazin-2(1H)-yl)-4-(trifluoromethyl)pyrimidin-5-yl)ethanone] | 350 | 191 | 
2 | CC(C)C1c2nc3ccc(S(C)(=O)=O)cc3n2CCN1c1ncc(C(C)(C)O)c(C(F)(F)F)n1 (racemic) [Compound E2, 2-(2-(1-isopropyl-7-(methylsulfonyl)-3,4-dihydrobenzo[4,5]imidazo[1,2-a]pyrazin-2(1H)-yl)-4-(trifluoromethyl)pyrimidin-5-yl)propan-2-ol] | 377 | 176 | 
3 | CC(C)C1c2nc3ccc(S(C)(=O)=O)cc3n2CCN1c1ncc(CO)c(C(F)(F)F)n1 (racemic) [Compound E4, (2-(1-isopropyl-7-(methylsulfonyl)-3,4-dihydrobenzo[4,5]imidazo[1,2-a]pyrazin-2(1H)-yl)-4-(trifluoromethyl)pyrimidin-5-yl)methanol] | 293 | 137 | 
4 | CC(=O)c1cnc(N2CCn3c(cc4cc(CO)c(S(C)(=O)=O)cc43)C2C(C)C)nc1C(F)(F)F (racemic) [Compound E26, (±)-1-(2-(8-(hydroxymethyl)-1-isopropyl-7-(methylsulfonyl)-3,4-dihydropyrazino[1,2-a]indol-2(1H)-yl)-4-(trifluoromethyl)pyrimidin-5-yl)ethanone] | 16 | 7 | 
5 | CCOC(=O)c1cnc(N2CCn3c(cc4cc(CO)c(S(C)(=O)=O)cc43)C2C(C)C)nc1C(F)(F)F (racemic) [Compound E28, (±)-Ethyl 2-(8-(hydroxymethyl)-1-isopropyl-7-(methylsulfonyl)-3,4-dihydropyrazino[1,2-a]indol-2(1H)-yl)-4-(trifluoromethyl)pyrimidine-5-carboxylate] | 72 | 5 | 
6 | CC(C)[C@@H]1c2nc3cc(CO)c(S(C)(=O)=O)cc3n2CCN1c1ncc(C(C)(C)O)c(C(F)(F)F)n1 (single isomer, unassigned) [Compound E7a] | 23 | 14 | 
7 | CC(C)[C@H]1c2nc3cc(CO)c(S(C)(=O)=O)cc3n2CCN1c1ncc(C(C)(C)O)c(C(F)(F)F)n1 (single isomer, unassigned) [Compound E7b] | 2180 | > 2500 | 
8 | CCCC(O)c1cnc(N2CCn3c(nc4cc(CO)c(S(C)(=O)=O)cc43)[C@H]2C(C)C)nc1C(F)(F)F (single isomer, unassigned) [Compound E11a] | 68 | 14 | 
9 | CCCC(O)c1cnc(N2CCn3c(nc4cc(CO)c(S(C)(=O)=O)cc43)[C@H]2C(C)C)nc1C(F)(F)F (single isomer, unassigned) [Compound E11b] | 103 | 23 | 
10 | CC(C)[C@@H]1c2nc3cc(CO)c(S(C)(=O)=O)cc3n2CCN1c1ncc(C(N)=O)c(C(F)(F)F)n1 (single isomer, unassigned) [Compound E15a] | > 20000 | 240 | 
11 | CC(C)[C@H]1c2nc3cc(CO)c(S(C)(=O)=O)cc3n2CCN1c1ncc(C(N)=O)c(C(F)(F)F)n1 (single isomer, unassigned) [Compound E15b] | > 20000 | > 2500 | 
12 | CC(C)[C@@H]1c2nc3cc(CO)c(S(C)(=O)=O)cc3n2CCN1c1ncc(C(=O)N(C)C)c(C(F)(F)F)n1 (single isomer, unassigned) [Compound E17a] | > 20000 | 220 | 
13 | CC(C)[C@H]1c2nc3cc(CO)c(S(C)(=O)=O)cc3n2CCN1c1ncc(C(=O)N(C)C)c(C(F)(F)F)n1 (single isomer, unassigned) [Compound E17b] | 4900 | > 2500 | 
14 | CC(C)[C@@H]1c2nc3cc(CO)c(S(C)(=O)=O)cc3n2CCN1c1ncc(CO)c(C2CC2)n1 (single isomer, unassigned) [Compound E20a] | > 20000 | 110 | 
15 | CC(C)[C@H]1c2nc3cc(CO)c(S(C)(=O)=O)cc3n2CCN1c1ncc(CO)c(C2CC2)n1 (single isomer, unassigned) [Compound E20b] | > 20000 | > 2500 | 
16 | CC(O)c1cnc(N2CCn3c(cc4ccc(S(C)(=O)=O)cc43)C2C(C)C)nc1C(F)(F)F (single isomer, unassigned) [Compound E24a, 1-(2-(1-isopropyl-7-(methylsulfonyl)-3,4-dihydropyrazino[1,2-a]indol-2(1H)-yl)-4-(trifluoromethyl)pyrimidin-5-yl)ethanol] |  | 7 | 134
17 | CC(O)c1cnc(N2CCn3c(cc4ccc(S(C)(=O)=O)cc43)C2C(C)C)nc1C(F)(F)F (single isomer, unassigned) [Compound E24b, 1-(2-(1-isopropyl-7-(methylsulfonyl)-3,4-dihydropyrazino[1,2-a]indol-2(1H)-yl)-4-(trifluoromethyl)pyrimidin-5-yl)ethanol] |  | 20 | 150
18 | CC(O)c1cnc(N2CCn3c(cc4ccc(S(C)(=O)=O)cc43)C2C(C)C)nc1C(F)(F)F (single isomer, unassigned) [Compound E24c, 1-(2-(1-isopropyl-7-(methylsulfonyl)-3,4-dihydropyrazino[1,2-a]indol-2(1H)-yl)-4-(trifluoromethyl)pyrimidin-5-yl)ethanol] |  | 1690 | 18200
19 | CC(O)c1cnc(N2CCn3c(cc4ccc(S(C)(=O)=O)cc43)C2C(C)C)nc1C(F)(F)F (single isomer, unassigned) [Compound E24d, 1-(2-(1-isopropyl-7-(methylsulfonyl)-3,4-dihydropyrazino[1,2-a]indol-2(1H)-yl)-4-(trifluoromethyl)pyrimidin-5-yl)ethanol] |  | > 2500 | > 20000
20 | CCOC(=O)c1cnc(N2CCn3c(nc4cc(CO)c(S(C)(=O)=O)cc43)[C@H]2C(C)C)nc1C(F)(F)F [Compound E12, (R)-ethyl 2-(8-(hydroxymethyl)-1-isopropyl-7-(methylsulfonyl)-3,4-dihydrobenzo[4,5]imidazo[1,2-a]pyrazin-2(1H)-yl)-4-(trifluoromethyl)pyrimidine-5-carboxylate] | 50 | 6 | 
21 | COc1nc(N2CCn3c(nc4cc(CO)c(S(C)(=O)=O)cc43)[C@H]2C(C)C)ncc1C(F)(F)F [Compound E18, (R)-(1-isopropyl-2-(4-methoxy-5-(trifluoromethyl)pyrimidin-2-yl)-7-(methylsulfonyl)-1,2,3,4-tetrahydrobenzo[4,5]imidazo[1,2-a]pyrazin-8-yl)methanol] | 24 | 8 | 
22 | Cc1cnc(N2CCn3c(nc4cc(CO)c(S(C)(=O)=O)cc43)[C@H]2C(C)C)nc1C(F)(F)F [Compound E21, (R)-(1-isopropyl-2-(5-methyl-4-(trifluoromethyl)pyrimidin-2-yl)-7-(methylsulfonyl)-1,2,3,4-tetrahydrobenzo[4,5]imidazo[1,2-a]pyrazin-8-yl)methanol] | 10 | 10 | 
23 | COC(=O)c1cnc(N2CCn3c(nc4cc(CO)c(S(C)(=O)=O)cc43)[C@H]2C(C)C)nc1C(F)(F)F [Compound E30, (R)-methyl 2-(8-(hydroxymethyl)-1-isopropyl-7-(methylsulfonyl)-3,4-dihydrobenzo[4,5]imidazo[1,2-a]pyrazin-2(1H)-yl)-4-(trifluoromethyl)pyrimidine-5-carboxylate] | 17 | 10 | 
